Series [1] deals with duplex oligonucleotides Pu-GAAATC-Py and Pu-GAAATG-Py. As to the kind of experiment: Oligonucleotide binding/alkylation assay.
A short description of series [2]: Exploratory single dose free drug toxicology study in rats. The following applies: for reticulocytes: all doses, 72 hours post-dose; for reticulocyte recovery: by 168 hours post-dose; for MTD at 7 day: rat, in vivo. Format: in vivo, rat. On the procedure: An exploratory single dose toxicology study was conducted in rats comparing the C-1 (PBD bis alkylator) and DM-2 (PBD monoalkylator) free drugs. Animals received a single IV dose of C-1, DM-2, or vehicle and were monitored for a 7-day recovery period.
Toxicity was assessed by clinical observations and clinical pathology (hematology and clinical chemistry at 72 and 168 hours post-dose). In general, results were similar for DM-2 at ten times the dose level of C-1.

Where [3] appears, read: 100 μM compound, 50 μM DNA, 1 hour, 37° C.

This note sets out measurements from US10639373B2, “Pyrrolobenzodiazepine antibody drug conjugates and methods of use” (priority 2015, dated 2020).

As for `C=C1C[C@H]2C=Nc3cc(OCCCCCOc4cc5c(cc4OC)C(=O)N4CC(=C)C[C@H]4C=N5)c(OC)cc3C(=O)N2C1` [C-1, (11aS,11a′S)-8,8′-(pentane-1,5-diylbis(oxy))bis(7-methoxy-2-methylene-1,2,3,11a-tetrahydro-5H-benzo[e]pyrrolo[1,2-a][1,4]diazepin-5-one), reference compound], the “more efficiency to covalently alkylate the duplex oligonucleotides than monoamine DM-1” value in series [1] (setting [3]) is recorded as 2-3 times. Also, the clinical pathology result in series [2] (0.2 mg/kg) is “clinical pathology changes indicative of liver and kidney toxicity”. In addition, the tolerability entry in series [2] (0.05 and 0.1 mg/kg, single IV dose) is listed as “well tolerated with no clinical signs”. In series [2], the reticulocytes result is recorded as “dose-dependent decrease in reticulocytes”; the reticulocyte recovery entry was “recovering in the 0.05 and 0.1 mg/kg groups”. Besides, in series [2] (single IV dose), the MTD at 7 day came out at 0.1 mg/kg; the main target organs entry is “bone marrow, kidney, and liver”; the “toxic potency relative to DM-2” value is listed as “approximately ten times as potent as DM-2”.

For the compound `C=C1C[C@H]2C=Nc3cc(OC)c(OC)cc3C(=O)N2C1` [C-2, (S)-7,8-dimethoxy-2-methylene-1,2,3,11a-tetrahydro-5H-benzo[e]pyrrolo[1,2-a][1,4]diazepin-5-one], the “less efficiency in covalently alkylating the duplex oligonucleotides than dimer C-1” value in series [1] (setting [3]) is > 50 times.

Take `C=C1C[C@H]2CNc3cc(OCCCCCOc4cc5c(cc4OC)C(=O)N4CC(=C)C[C@H]4CN5)c(OC)cc3C(=O)N2C1` [C-3, (11aS,11a′S)-8,8′-(pentane-1,5-diylbis(oxy))bis(7-methoxy-2-methylene-1,2,3,10,11,11a-hexahydro-5H-benzo[e]pyrrolo[1,2-a][1,4]diazepin-5-one)]: in series [1] (imine bonds of C-1 reduced), the DNA binding entry is given as “completely eliminates DNA binding”.

For `C=C1C[C@H]2C=Nc3cc(OCCCCCOc4cc5c(cc4OC)C(=O)N4CC(=C)C[C@H]4C(=O)N5)c(OC)cc3C(=O)N2C1` [DM-2, (S)-7-methoxy-8-((5-(((S)-7-methoxy-2-methylene-5-oxo-2,3,5,11a-tetrahydro-1H-benzo[e]pyrrolo[1,2-a] [1,4]diazepin-8-yl)oxy)pentyl)oxy)-2-methylene-2,3-dihydro-1H-benzo[e]pyrrolo[1,2-a] [1,4]diazepine-5,11(10H,11aH)-dione], in series [2] (2 mg/kg), the clinical pathology result was “clinical pathology changes indicative of liver and kidney toxicity”; the outcome is “euthanized in moribund condition on Day 4”. In addition, in series [2] (2 mg/kg, Day 2 to 4), the body weight loss result is given as “approximately 14%”. For the same compound, in series [2] (0.5 and 1 mg/kg, single IV dose), the tolerability result is recorded as “well tolerated”. In addition, in series [2], the reticulocytes entry was “dose-dependent decrease in reticulocytes”; the reticulocyte recovery entry is “recovered in the 0.5 and 1 mg/kg groups”. In addition, in series [2] (single IV dose), the MTD at 7 day amounted to 1 mg/kg; the main target organs entry was “bone marrow, kidney, and liver”.
